Values of other authors, collected in US20190160058A1, “METHODS OF TREATMENT WITH SELECTIVE CB2 RECEPTOR AGONISTS” (Arena Pharmaceuticals, Inc., priority 2016, published 2019).

How the values were obtained:
guinea pigs = conditions: cited from earlier work
[1] = tested on: human vagus nerve preparations; conditions: in vitro; cited from earlier work
conscious guinea-pigs = conditions: given prior to exposure to citric acid; cited from earlier work
[2] = tested on: guinea pig vagus nerve preparations; conditions: in vitro; cited from earlier work
[3] = tested on: LPS-induced bladder inflammation; conditions: in vivo; cited from earlier work
RPE cells = conditions: cited from earlier work
EAE mouse model = conditions: in vivo; cited from earlier work
[4] = tested on: ovariectomy-induced bone loss; conditions: in vivo; cited from earlier work
[5] = tested on: bone marrow-derived osteoblasts/stromal cells; conditions: in vitro; cited from earlier work
[6] = tested on: bovine nasal cartilage explants; conditions: in vitro; cited from earlier work
mice = conditions: cited from earlier work

CCCCC/C=C\C/C=C\C/C=C\C/C=C\CCCC(=O)NCCO [anandamide]
number of capsaicin-induced coughs (guinea pigs): dose-dependent inhibition

CCCC(C)(C)c1ccc2c(c1)OC(C)(C)[C@@H]1CC=C(C)C[C@@H]21 [JWH133]
capsaicin-, PGE2-, and hypertonic saline-induced depolarization [1]: reduces capsaicin-, PGE2-, and hypertonic saline-induced depolarization | cough (conscious guinea-pigs): significantly reduces cough | capsaicin-, PGE2-, and hypertonic saline-induced depolarization [2]: reduces capsaicin-, PGE2-, and hypertonic saline-induced depolarization

CCCn1c(C)c(C(=O)c2cccc3ccccc23)c2ccccc21 [JWHO15]
LPS-induced bladder inflammation [3]: antagonize LPS-induced bladder inflammation | protection from oxidative damage (RPE cells): provides comparable protection

CCCCCCC(C)(C)c1cc(OC)c([C@@H]2C=C(CO)[C@@H]3C[C@H]2C3(C)C)c(OC)c1 [HU-308]
cell recruitment, proliferation and axonal loss (EAE mouse model): markedly reduces the recruitment of immature myeloid cells and T cells, microglial and infiltrating myeloid cell proliferation, and axonal loss | bone loss and cortical thickness [4]: attenuates ovariectomy-induced bone loss and stimulates cortical thickness | osteoblast numbers and activity, osteoclast precursor proliferation [5]: enhances endocortical osteoblast numbers and activity while simultaneously inhibiting proliferation of osteoclast precursors

Cc1c(C(=O)c2cccc3ccccc23)c2cccc3c2n1[C@H](CN1CCOCC1)CO3 [WIN 55212-2]
leukocyte rolling and adhesion in the brain (EAE mouse model): significantly inhibits leukocyte rolling and adhesion in the brain | IL-1alpha-stimulated proteoglycan and collagen degradation [6]: significantly inhibit | number of capsaicin-induced coughs (mice): dose-dependent inhibition
